pEC50: −log10 of the molar value. Where “and” joins values, the source holds several entries; their conditions need not be identical. Identical values can stand only once.
biological target: human mGluR5A (Homo sapiens, UniProt P41594); assay: mGluR5 FLIPR Assay; type: cell-based; conditions: positive modulator activity; HEK293 (ZF) cells with human mGluR5A and rat GLAST; Ca++ response to ~EC10 glutamate
Sequence (P41594 21-1180 isoform P41594-2): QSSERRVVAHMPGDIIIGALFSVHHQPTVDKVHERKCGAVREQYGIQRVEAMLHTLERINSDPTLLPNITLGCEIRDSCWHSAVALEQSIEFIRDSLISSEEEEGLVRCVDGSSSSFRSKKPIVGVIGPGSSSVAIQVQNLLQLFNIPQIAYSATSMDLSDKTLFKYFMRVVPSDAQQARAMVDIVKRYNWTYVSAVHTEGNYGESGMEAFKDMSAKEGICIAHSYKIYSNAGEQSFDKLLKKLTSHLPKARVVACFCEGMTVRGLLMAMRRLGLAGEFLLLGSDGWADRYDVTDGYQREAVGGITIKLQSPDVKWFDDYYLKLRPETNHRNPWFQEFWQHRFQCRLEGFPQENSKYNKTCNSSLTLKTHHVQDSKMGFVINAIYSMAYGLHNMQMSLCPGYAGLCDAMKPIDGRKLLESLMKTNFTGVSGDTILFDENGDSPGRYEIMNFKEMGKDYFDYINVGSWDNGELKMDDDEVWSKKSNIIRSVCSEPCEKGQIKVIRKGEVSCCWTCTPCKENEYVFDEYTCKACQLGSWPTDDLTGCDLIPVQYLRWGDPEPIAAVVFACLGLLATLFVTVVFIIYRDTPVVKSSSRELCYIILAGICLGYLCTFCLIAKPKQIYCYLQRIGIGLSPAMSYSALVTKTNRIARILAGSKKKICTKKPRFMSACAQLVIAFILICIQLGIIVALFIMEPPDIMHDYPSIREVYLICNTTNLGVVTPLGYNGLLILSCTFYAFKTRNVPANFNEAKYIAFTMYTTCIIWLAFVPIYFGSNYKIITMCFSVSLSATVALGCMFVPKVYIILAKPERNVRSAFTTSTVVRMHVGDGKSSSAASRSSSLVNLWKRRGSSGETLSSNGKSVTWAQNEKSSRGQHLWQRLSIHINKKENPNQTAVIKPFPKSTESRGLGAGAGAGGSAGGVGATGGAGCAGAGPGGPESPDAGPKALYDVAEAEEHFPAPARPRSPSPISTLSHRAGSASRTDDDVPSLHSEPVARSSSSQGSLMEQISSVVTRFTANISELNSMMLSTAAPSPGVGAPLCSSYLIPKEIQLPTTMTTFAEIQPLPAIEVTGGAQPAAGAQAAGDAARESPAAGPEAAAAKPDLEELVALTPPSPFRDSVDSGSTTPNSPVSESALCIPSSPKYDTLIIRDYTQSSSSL

| Structure (SMILES) | pEC50 |
| --- | --- |
| N#Cc1ccc(C#Cc2cncc([C@H]3NC(=O)O[C@@H]3c3cc(F)ccc3F)c2)cc1 [Example 391, 4-((5-((4R,5R)-5-(2,5-difluorophenyl)-2-oxooxazolidin-4-yl)pyridin-3-yl)ethynyl)benzonitrile] | < 6.00 |
| O=C1N[C@H](c2cncc(C#Cc3ccccc3Cl)c2)[C@@H](c2cc(F)ccc2F)O1 [Example 392, (4R,5R)-4-(5-((2-chlorophenyl)ethynyl)pyridin-3-yl)-5-(2,5-difluorophenyl)oxazolidin-2-one] | > 7.00 |
| O=C1N[C@H](c2cncc(C#Cc3ccnnc3)c2)[C@@H](c2cc(F)ccc2F)O1 [Example 393, (4R,5R)-5-(2,5-difluorophenyl)-4-(5-(pyridazin-4-ylethynyl)pyridin-3-yl)oxazolidin-2-one] | < 6.00 |
| O=C1N[C@H](c2cncc(C#Cc3ccncn3)c2)[C@@H](c2cc(F)ccc2F)O1 [Example 394, (4R,5R)-5-(2,5-difluorophenyl)-4-(5-(pyrimidin-4-ylethynyl)pyridin-3-yl)oxazolidin-2-one] | < 6.00 |
| O=C1N[C@H](c2cncc(C#Cc3cncnc3)c2)[C@@H](c2cc(F)ccc2F)O1 [Example 395, (4R,5R)-5-(2,5-difluorophenyl)-4-(5-(pyrimidin-5-ylethynyl)pyridin-3-yl)oxazolidin-2-one] | 6.00 to 7.00 |
| O=C1N[C@H](c2cncc(C#Cc3cnccn3)c2)[C@@H](c2cc(F)ccc2F)O1 [Example 396, (4R,5R)-5-(2,5-difluorophenyl)-4-(5-(pyrazin-2-ylethynyl)pyridin-3-yl)oxazolidin-2-one] | > 7.00 |
| O=C1N[C@H](c2cncc(C#Cc3cnccn3)c2)[C@@H](c2cccc(F)c2)O1 [Example 397, (4R,5R)-5-(3-Fluorophenyl)-4-(5-(pyrazin-2-ylethynyl)pyridin-3-yl)oxazolidin-2-one] | > 7.00 |
| O=C1N[C@H](c2cncc(C#Cc3cncnc3)c2)[C@@H](c2cccc(F)c2)O1 [Example 398, (4R,5R)-5-(3-fluorophenyl)-4-(5-(pyrimidin-5-ylethynyl)pyridin-3-yl)oxazolidin-2-one] | 6.00 to 7.00 and 6.85 |
| O=C1N[C@H](c2cncc(C#Cc3ccccc3Cl)c2)[C@@H](c2cccc(F)c2)O1 [Example 399, (4R,5R)-4-(5-((2-chlorophenyl)ethynyl)pyridin-3-yl)-5-(3-fluorophenyl)oxazolidin-2-one] | > 7.00 |
| O=C1N[C@H](c2cncc(C#Cc3cccc(F)c3)c2)[C@@H](c2cccc(F)c2)O1 [Example 400, (4R,5R)-5-(3-fluorophenyl)-4-(5-((3-fluorophenyl)ethynyl)pyridin-3-yl)oxazolidin-2-one] | > 7.00 |
| Cc1cccc(C#Cc2cncc([C@H]3NC(=O)O[C@@H]3c3cccc(F)c3)c2)c1 [Example 401, (4R,5R)-5-(3-fluorophenyl)-4-(5-(m-tolylethynyl)pyridin-3-yl)oxazolidin-2-one] | > 7.00 |
| O=C1N[C@H](c2cncc(C#Cc3cccc(C(F)(F)F)c3)c2)[C@@H](c2cccc(F)c2)O1 [Example 402, (4R,5R)-5-(3-fluorophenyl)-4-(5((3-(trifluoromethyl)phenyl)ethynyl)pyridin-3-yl)oxazolidin-2-one] | < 5.52 |

Further lines, results first:

| pEC50 | Structure (SMILES) |
| --- | --- |
| > 7.00 | O=C1N[C@H](c2cncc(C#Cc3cccc(Cl)c3)c2)[C@@H](c2cccc(F)c2)O1 [Example 403, (4R,5R)-4-(5-((3-chlorophenyl)ethynyl)pyridin-3-y1)-5-(3-fluorophenyl)oxazolidin-2-one] |
| > 7.00 | O=C1N[C@H](c2cncc(C#Cc3ccccc3)c2)[C@@H](c2ccccc2F)O1 [Example 404, (4R,5R)-5-(2-Fluorophenyl)-4-(5-(phenylethynyl)pyridin-3-yl)oxazolidin-2-one] |
| 6.00 to 7.00 | O=C1N[C@H](c2ccc(C#Cc3ccccc3)nc2)[C@@H](c2cccc(F)c2)O1 [Example 408, (4R,5R)-5-(3-Fluorophenyl)-4-(6-(phenylethynyl)pyridin-3-yl)oxazolidin-2-one] |
| 6.00 to 7.00 | O=C1N[C@@H](c2ccc(C#Cc3ccccc3)cn2)[C@H](c2cccc(F)c2)O1 [Example 409, (4S,5S)-5-(3-Fluorophenyl)-4-(5-(phenylethynyl)pyridin-2-yl)oxazolidin-2-one] |
| < 6.00 | O=C1N[C@H](c2ccc(C#Cc3ccccc3)cn2)[C@@H](c2cccc(F)c2)O1 [Example 410, (4R,5R)-5-(3-fluorophenyl)-4-(5-(phenylethynyl)pyridin-2-yl)oxazolidin-2-one] |

Reference: patent USRE49735E1 (BRISTOL-MYERS SQUIBB COMPANY, priority 2010, dated 2023)
